This is an account of results in PubChem BioAssay (NCI).

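Dose response: 5 concentrations. Exposure: 48 h. Format: 96-well plates. Endpoint: linear interpolation; highest concentration if not reached. GI50 marks 50% less growth. TGI marks complete inhibition of growth.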 Where a SMILES comes first, the peptide text is derived from it.

Holding throughout (test): growth of human tumour cells (NCI), 48 h
The test system of experiment [1] is RPMI-8226 leukemia.
Experiment [2] relates to UACC-257 melanoma.
The test system of experiment [3] is LOX IMVI melanoma.
Experiment [4] concerns SF-268 CNS.
Experiment [5] relates to MALME-3M melanoma.
Experiment [6] deals with SK-OV-3 ovarian.
In experiment [7] the test system is SK-MEL-28 melanoma.
In experiment [8] the test system is OVCAR-3 ovarian.
The test system of experiment [9] is SN12C renal.
The test system of experiment [10] is MDA-MB-231 breast.

Take `C/C(N=Nc1nc2ccccc2[nH]1)=C1/C=CC=CN1O`: the TGI in experiment [1], in experiment [2], in [3], in experiment [4], in [5] and in experiment [6] was above 100 µM in each case. The TGI in experiment [7], in [8], in experiment [9] and in experiment [10] was above 100 µM in each case.
As for `COc1cc2c(cc1OCCCCCCCCN1C(=O)c3cccc4cccc(c34)C1=O)N=C[C@@H]1CCCN1C2=O`, the TGI in [1] was found to be 8.53 µM; in experiment [2], 68.8 µM; in experiment [3], 25.5 µM; in experiment [4], 58.5 µM; in experiment [5], 49.2 µM; in experiment [6], 9.72 µM. Besides, the TGI in experiment [7] was 37.9 µM; in [8], 55.9 µM; in experiment [9], 63.9 µM; in experiment [10], 34 µM.
Take `COC(CN(C=O)[C@@H](c1ccc(Cl)cc1)c1cc2ccccc2o1)OC`: the TGI is 35.3 µM in experiment [1]; 28 µM in experiment [2]; 34.5 µM in experiment [3]; 30.9 µM in [4]; 11.5 µM in experiment [5]; 26.6 µM in experiment [6]. In addition, the TGI in experiment [7] is 34.5 µM; in experiment [8], 26.8 µM; in experiment [9], 31.1 µM; in experiment [10], 37 µM.
For `O=S(=O)(O)c1cc(N=[N+]([O-])c2cc(S(=O)(=O)O)c3ccccc3c2)cc2ccccc12`, the TGI in experiment [1] was above 100 µM; in experiment [2], above 100 µM; in experiment [3], 60.6 µM; in experiment [4] it was above 100 µM; in experiment [5], above 100 µM; in [6], above 100 µM. Besides, the TGI in experiment [7] is above 100 µM; in experiment [8], 28.2 µM; in experiment [9], 53.8 µM; in [10], above 100 µM.
On to `O=C(O)C(O)C(O)C(O)C(=O)CO` (centres undefined), for which the TGI in [1], in experiment [2], in [3], in experiment [4], in [5] and in [6] was above 100 µM throughout. Also, the TGI in experiment [7], in experiment [8], in [9] and in experiment [10] was above 100 µM throughout.
Regarding `CCCSc1ccc2[nH]c(N3C(=O)/C(=C/c4cc(OC)c(OC)c(OC)c4)N=C3c3ccccc3)cc2c1`, the TGI in [1] was 27.1 µM; in experiment [2] it was above 37.5 µM; in experiment [3], above 37.5 µM; in experiment [4], above 37.5 µM; in experiment [5], above 37.5 µM; in experiment [6] it was above 25.3 µM. The TGI is above 37.5 µM in [7], 26.5 µM in experiment [8], above 37.5 µM in [9] and above 37.5 µM in experiment [10].
With `O=C1/C(=C\c2ccc(F)cc2)CCOc2c1ccc1ccccc21`, the TGI in [1] is 9.45 µM; in [2], 54.4 µM; in [3] it was 38.4 µM; in [4], 74.9 µM; in experiment [5], 37.7 µM; in [6], above 100 µM. Also, the TGI is above 71.1 µM in experiment [7], 27.9 µM in experiment [8], above 89.2 µM in experiment [9] and above 47.7 µM in [10]. Moreover, the GI50 in [3] was 13 µM.
Take `COc1cc2c(cc1C)NC(=O)/C2=C/c1c(Cl)n(-c2ccccc2)c2ccccc12`: the TGI in experiment [1] is 52.8 µM; in experiment [2], 61.7 µM; in experiment [3], 27.8 µM; in [4], above 100 µM; in experiment [5], 37.2 µM; in experiment [6], 69.7 µM. Besides, the TGI in experiment [7] is above 100 µM; in experiment [8] it was 28 µM; in [9], 23.6 µM; in experiment [10], above 100 µM.
Regarding `CCCN1C(=O)CSC1=Nc1ccc2cc3ccc(N=C4SCC(=O)N4CCC)cc3nc2c1`, the GI50 in [1] was 7.4 µM; in experiment [2], above 100 µM; in experiment [3], above 100 µM; in [4], 35.5 µM; in [5] it was 17.5 µM; in experiment [6], 39.4 µM. Also, the GI50 in experiment [7] is above 100 µM; in experiment [8], 22 µM; in experiment [9], above 100 µM; in experiment [10], 25.1 µM. The TGI in [1] was above 100 µM; in experiment [2], above 100 µM; in experiment [3], above 100 µM; in experiment [4], above 100 µM; in experiment [5] it was 81.7 µM; in experiment [6], above 100 µM. In addition, the TGI in experiment [7] was above 100 µM; in experiment [8], 67.6 µM; in experiment [9], above 100 µM; in [10] it was above 100 µM.
For the molecule `Nc1ccc(-c2nc3cc(F)ccc3s2)cc1CO`, the TGI in experiment [1] was above 100 µM; in [2], above 100 µM; in [3] it was above 100 µM; in experiment [4], 68.8 µM; in experiment [5] it was above 100 µM; in [6] it was 49.3 µM. Moreover, the TGI in [7] was above 100 µM; in experiment [8] it was above 100 µM; in [9] it was above 100 µM; in experiment [10] it was above 70 µM.
Consider `CC(=O)c1ccc2c(c1)N(CCCN1CCN(CCO)CC1)c1ccccc1C2`, for which the TGI was determined as 30.1 µM in [1]; 18.9 µM in [2]; 29.6 µM in [3]; 33.2 µM in experiment [4]; 33 µM in experiment [5]; 30.5 µM in [6]. For the same molecule, the TGI in experiment [7] came out at 23.8 µM; in experiment [8], 29.5 µM; in [9], 31.2 µM; in experiment [10], 26.7 µM.
As for `COC(=S)OC1CC(n2cnc3c(N)ncnc32)OC1CO[Si](C)(C)C(C)(C)C` (centres undefined), the TGI in experiment [1] was above 100 µM; in experiment [2] it was 72.8 µM; in experiment [3], above 100 µM; in [5], 66.8 µM; in [6], 60.1 µM; in experiment [7], 96.7 µM. Besides, the TGI in experiment [8] stood at 31 µM; in experiment [9], 48.6 µM; in [10], 39.9 µM.
Turning to `Nc1cc(-c2ccc(Cl)cc2)nn1-c1nc2ccccc2nc1-c1ccccc1`, the TGI in [1], in experiment [2], in [3], in experiment [4], in experiment [5] and in experiment [6] was above 100 µM each time. For the same molecule, the TGI in [7], in experiment [8], in [9] and in experiment [10] was above 100 µM throughout.
`O=c1[nH]c(Nc2ccc(Cl)cc2)nc2nc[nH]c12`: the TGI in [1], in [2], in experiment [3], in experiment [4], in experiment [5] and in experiment [6] was above 100 µM each time. Further, the TGI in experiment [7], in [8], in [9] and in [10] was above 100 µM in each case.
With `O=c1c2ccccc2[nH]c(=S)n1-c1ccc(N=Nc2cccc3cc(O)ccc23)cc1`, the TGI in experiment [1], in [2], in [3], in experiment [4], in experiment [5] and in experiment [6] was above 100 µM in each case. Also, the TGI in experiment [7], in [8], in experiment [9] and in experiment [10] was above 100 µM throughout.
On to `Nc1ccc(Oc2ccc(C34CC5CC(C3)CC(c3ccc(Oc6ccc(N)cc6)cc3)(C5)C4)cc2)cc1`, for which the TGI in [1] was above 100 µM; in [2] it was 40.9 µM; in experiment [3], 20.1 µM; in [4], above 51.7 µM; in [5], 28.7 µM; in [6], above 70.1 µM. Further, the TGI in [7] is above 72.1 µM; in [8], above 32.3 µM; in [9], above 55.2 µM; in experiment [10], 32.9 µM.
Turning to `COC(=O)C[C@H](COCc1ccccc1)NC(=O)C[C@H](COCc1ccccc1)NC(=O)OC(C)(C)C`, the TGI in [1] was above 100 µM; in [3], above 100 µM; in experiment [4], 40.5 µM; in experiment [5], above 100 µM; in experiment [6], 59.8 µM; in experiment [7] it was above 100 µM. The results for the TGI in experiment [8], in experiment [9] and in [10] were 86.9 µM, 80.6 µM and above 100 µM, respectively.
As to `CCC(C)C(NC(=O)C1CCCN1C(=O)C(CC(C)C)NC(=O)C(CC(C)C)NC(=O)C(N)CC(C)C)C(=O)NC(C(=O)NCC(=O)NC(CC(N)=O)C(=O)NC(CC(C)C)C(=O)NC(CC(C)C)C(=O)NC(CC(C)C)C(N)=O)C(C)C` (centres undefined) (H-LLLPIVGNLLL-NH2; configuration not given here), the TGI in experiment [1], in experiment [2], in experiment [3], in experiment [4], in [5] and in experiment [6] was above 50 µM in each case. Moreover, the TGI in experiment [7], in [8], in experiment [9] and in experiment [10] was above 50 µM in each case.
